In brackets after ≈: the same amount, converted by molar mass. Like-named read-outs stand apart in the source and are kept apart here. Positions of bridges follow the written chain, without caps; N, C: chain ends. Residues, ends and D or L forms follow the SMILES beside them. No end group written: not given here.
Experiments:
[1] = test system: Fusarium graminearum PH-1; assay type: cell-based; details: for F. graminearum PH-1 MIC Day 1: Fusarium graminearum PH-1, 96-well, resazurin viability
Botrytis cinerea T4 = assay type: cell-based
Aspergillus fumigatus = details: for MIC values (μg/ml) 100%: Aspergillus fumigatus AF293, Table 8
Candida auris = details: for MIC values (μg/ml) 100%: Table 8
F. oxysporum = experiment: MIC antifungal assay in SFM culture media; assay type: cell-based; details: in vitro, low cationic conditions
P. capsici [2] = experiment: MIC antifungal assay in SFM culture media; assay type: cell-based; details: in vitro, low cationic conditions
B. cinerea = experiment: MIC antifungal assay in SFM culture media (with or without added salts); assay type: cell-based, Botrytis cinerea; details: for antifungal activity relative to the wild-type GMA4C_AC control, B. cinerea: in vitro, low cationic conditions
F. graminearum = assay type: cell-based, Fusarium graminearum; details: in vitro, low cationic conditions
Candida albicans = details: for MIC values (μg/ml) 100%: Table 8
C. albicans = experiment: Peptide or protein/Fluconazole combination MIC and FICI; details: combination with Fluconazole
Coccidioides sp. = assay type: cell-based; details: Table 8
C. parapsilosis = experiment: MIC, CLSI M27/M38, half-strength potato dextrose broth; assay type: cell-based, Candida parapsilosis; details: C. parapsilosis ATCC 22019; Table 8
Experimental: (§1) MICs were determined at 24-72 hours.

Fusarium (F. solani) = experiment: as above; assay type: cell-based; details: Fusarium F4 (F. solani); Table 8
Experimental: as §1

Fusarium (F. oxysporum) = experiment: as above; assay type: cell-based; details: Table 8
Experimental: as §1

[3] = test system: Tricophyton metagrophytes; experiment: MIC against human nail pathogens; details: isolate 26103; Table 13
Tricophyton rubrum = experiment: MIC against human nail pathogens; details: isolate 23014; Table 13
P. capsici [4] = experiment: Disease symptom reduction on tomato leaves; assay type: in vivo; details: compared with GMA4C_AC
Source text: Antifungal activity in planta.

[5] = test system: Enterotoxigenic E. coli-F4; experiment: Antibacterial growth inhibition in Mueller-Hinton media (OD600); assay type: cell-based; details: 37° C. overnight
Experimental: Salmonella typhimurium var. Copenhagen, Enterotoxigenic E. coli-F4 and Listeria monocytogens (F5244) strains were grown overnight on an LB agar plate at 37_C. A small number of bacteria was scraped from the plate and added to Mueller-Hinton (MH) growth media and grown to log phase. Cells were diluted to 1-3×10^6 CFU/mL and 50 μl were added to each well in a polypropylene 96-well plate. Synthesized peptide GMA4C_V1A was diluted into 0.2% BSA, 0.01% acetic acid solution and added to the concentration of 0.2, 0.4, 0.80, 1.6, 3.25, 7.5, 15, 30 and 60 and 120 µM. Then, 50 μl of each peptide solution was added to 50 μl of bacterial cells. Plates were parafilmed and incubated at 37° C. overnight. The concentrations at which bacterial growth inhibition was determined based on the OD600 nm value at each concentration relative to the OD600 nm value of MH medium alone and that of bacterial growth in MH medium without any peptide.

L. monocytogenes F5244 = experiment: as above; assay type: cell-based, Listeria monocytogens; details: 37° C. overnight
[6] = test system: Salmonella typhimurium var. Copenhagen; experiment: as above; assay type: cell-based; details: 37° C. overnight

Molecule	F. graminearum PH-1 MIC Day 1 [1]	MIC against B. cinerea (Botrytis cinerea T4)	antifungal activity relative to the wild-type GMA4C_AC control, F. oxysporum (F. oxysporum)	antifungal activity relative to the wild-type GMA4C_AC control, P. capsici (P. capsici [2])	antifungal activity relative to the wild-type GMA4C_AC control, B. cinerea (B. cinerea)	antifungal activity relative to the wild-type GMA4C_AC control, F. graminearum (F. graminearum)	MIC values (μg/ml) 100% (Aspergillus fumigatus)	MIC values (μg/ml) 100% (Candida auris; Candida auris DI17-46)	MIC values (μg/ml) 100% (Candida auris; Candida auris DI17-47)	MIC values (μg/ml) 100% (Candida auris; Candida auris DI17-48)	MIC values (μg/ml) 100% (Coccidioides sp.; Coccidioides sp. Cocci1)	MIC values (μg/ml) 100% (Coccidioides sp.; Coccidioides sp. Cocci2)	MIC values (μg/ml) 100% (Coccidioides sp.; Coccidioides sp. DI17-143)	MIC values (μg/ml) 100% (Candida albicans; Candida albicans ATCC 90028)	MIC values (μg/ml) 100% (Candida albicans; Candida albicans CA3)	MIC values (μg/ml) 100% (Candida albicans; Candida albicans SC5314)	MIC values (μg/ml) 100% (C. parapsilosis)	also measured
C[C@@H]1[C@H](O)[C@@H](C)/C=C/C=C/C=C/C=C/C=C/C=C/C=C/[C@H](O[C@@H]2O[C@H](C)[C@@H](O)[C@H](N)[C@@H]2O)C[C@@H]2O[C@](O)(C[C@@H](O)C[C@@H](O)[C@H](O)CC[C@@H](O)C[C@@H](O)CC(=O)O[C@H]1C)C[C@H](O)[C@H]2C(=O)O [Amphotericin-B, reference compound]	6 µM	3 µM (≈ 2.77 µg/mL)																MIC against F. graminearum ([1]; F. graminearum PH-1, Example 7): 6 µM (≈ 5.54 µg/mL)
CC[C@H](C)[C@H](NC(=O)[C@H](CCCNC(=N)N)NC(=O)[C@@H](NC(=O)[C@@H](NC(=O)[C@H](Cc1ccccc1)NC(=O)[C@@H](NC(=O)[C@H](CCCNC(=N)N)NC(=O)[C@H](CCCNC(=N)N)NC(=O)[C@H](CCCNC(=N)N)NC(=O)[C@H](Cc1ccccc1)NC(=O)CNC(=O)[C@H](CCCNC(=N)N)NC(=O)[C@H](CS)NC(=O)[C@H](CCCNC(=N)N)NC(=O)CNC(=O)CN)C(C)C)C(C)C)[C@@H](C)O)C(=O)N[C@@H](CS)C(N)=O [GMA4C_V3A] (H-GGRCRGFRRRVFVTRIC-NH2; N-terminus assumed)			equivalent	equivalent	equivalent	equivalent												MIC in μM Aspergillus fumigatus (36843) (Aspergillus fumigatus): 11.2 µM (≈ 22.8 µg/mL); Candida auris (38883) MIC (Candida auris): 5.6 µM; Candida albicans (33795) MIC (Candida albicans): 2.8 µM; Interpretation (C. albicans): Conclusion: GMA4C_v3 shows synergistic enhancement of antifungal activity against drug resistant C. albicans in combination with Fluconazole
CC[C@H](C)[C@H](NC(=O)[C@H](CCCNC(=N)N)NC(=O)[C@@H](NC(=O)[C@H](CS)NC(=O)[C@H](Cc1ccccc1)NC(=O)[C@H](CS)NC(=O)[C@H](CCCNC(=N)N)NC(=O)[C@H](CCCNC(=N)N)NC(=O)[C@H](CCCNC(=N)N)NC(=O)[C@H](Cc1ccccc1)NC(=O)CNC(=O)[C@H](CCCNC(=N)N)NC(=O)[C@H](CS)NC(=O)[C@H](CCCNC(=N)N)NC(=O)CNC(=O)CN)[C@@H](C)O)C(=O)N[C@@H](CS)C(N)=O [GMA4C_V2A] (H-GGRCRGFRRRCFCTRIC-NH2; N-terminus assumed)					two-fold reduction	two-fold reduction	32 µg/mL (≈ 15.6 µM)	16 µg/mL (≈ 7.82 µM)	16 µg/mL (≈ 7.82 µM)	16 µg/mL (≈ 7.82 µM)	8 µg/mL (≈ 3.91 µM)	16 µg/mL (≈ 7.82 µM)	16 µg/mL (≈ 7.82 µM)	16 µg/mL (≈ 7.82 µM)	16 µg/mL (≈ 7.82 µM)	16 µg/mL (≈ 7.82 µM)	8 µg/mL (≈ 3.91 µM)	MIC values (μg/ml) 100% (Fusarium (F. solani)): 8 µg/mL (≈ 3.91 µM); MIC values (μg/ml) 100% (Fusarium (F. oxysporum); Fusarium F1 (F. oxysporum)): 8 µg/mL (≈ 3.91 µM); MIC values (μg/ml) 100% (Fusarium (F. oxysporum); Fusarium F2 (F. oxysporum)): 16 µg/mL (≈ 7.82 µM)
OeDef1_V3: OeDef1 variant, printed with SEQ ID NO: 769 in Table 13 (GACLKNRHSKHYGWFWYYRHCY-NH2; disulfide 3-21 (inferred))																		MIC in μM Aspergillus fumigatus (36843) (Aspergillus fumigatus; isolate 36843, Table 13): >7.9 µM; MIC in μM Tricophyton metagrophytes (26103) [3]: 4.0 µM; MIC in μM Tricophyton rubrum (23014) (Tricophyton rubrum): 4.0 µM
CC[C@H](C)[C@H](NC(=O)[C@H](CCCNC(=N)N)NC(=O)[C@@H](NC(=O)[C@H](CS)NC(=O)[C@H](Cc1ccccc1)NC(=O)[C@H](CS)NC(=O)[C@H](CCCNC(=N)N)NC(=O)[C@H](CCCNC(=N)N)NC(=O)[C@H](CCCNC(=N)N)NC(=O)[C@H](Cc1ccccc1)NC(=O)CNC(=O)[C@H](CCCCN)NC(=O)[C@H](CS)NC(=O)[C@H](CCCNC(=N)N)NC(=O)CNC(=O)CN)[C@@H](C)O)C(=O)N[C@@H](CS)C(N)=O [GMA4C_V1A] (H-GGRCKGFRRRCFCTRIC-NH2; N-terminus assumed)			equivalent	equivalent	equivalent	equivalent	32 µg/mL (≈ 15.9 µM)	8 µg/mL (≈ 3.96 µM)	8 µg/mL (≈ 3.96 µM)	8 µg/mL (≈ 3.96 µM)	8 µg/mL (≈ 3.96 µM)	4 µg/mL (≈ 1.98 µM)	8 µg/mL (≈ 3.96 µM)	8 µg/mL (≈ 3.96 µM)	8 µg/mL (≈ 3.96 µM)	8 µg/mL (≈ 3.96 µM)	4 µg/mL (≈ 1.98 µM)	reducing disease symptoms caused by P. capsici (P. capsici [4]): more effective; Concentrations (in μM) at which growth inhibition was observed, Enterotoxigenic E. coli-F4 [5]: 7.5 to 60 µM; fungal growth inhibition at 6 μM (B. cinerea; B. cinerea, in presence of 2 mM CaCl2, 6 μM): inhibit fungal growth; potency of activity relative to GMA4C_AC (B. cinerea; B. cinerea, in presence of 100 mM NaCl or 100 mM KCl): 2 fold; Concentrations (in μM) at which growth inhibition was observed, L. monocytogenes F5244 (L. monocytogenes F5244): 15 to 30 µM; Concentrations (in μM) at which growth inhibition was observed, S. Typhimurium var. Copenhagen [6]: 15 to 60 µM
PD81.1.1: SEQ ID NO: 534 with N-terminal alanine; Pinus sylvestris wild-type defensin, expressed in Pichia pastoris (RMCKTPSGKFKGYCVSSTNCKNVCRTEGFPTGSCDFHVASRKCYCYKPC; N-terminal alanine added; listed as Pinus sylvestris)	1.5 µM	1 µM																

From US20260209297A1, “ANTIMICROBIAL PEPTIDES AND MODIFICATIONS THEREOF” (priority 2022, published 2026)
